Each block holds one molecule with its values, some of them ahead of it. Peptide text beside a SMILES is read from it. * marks the point of attachment. 5FAM = O=C1OC2(c3ccc(O)cc3Oc3cc(O)ccc32)c2ccc(C(=O)*)cc21
Experiments:
HepG2 WT cells = assay: Colocalization of EGFP-ATP7B-WT with TGN, lysosome (LAMP1) and LC3B markers; format: cell-based, human; conditions: 200 µM BCS, 24 h
Procedure: For the detection of the effect of copper on autophagosome-lysosome fusion, 50,000 cells of each HepG2 WT and HepG2 ATP7B^−/− were grown on laminin-coated coverslips for 24 h, transduced with BacMam-GFP-RFP-LC3B overnight according to the manufacturer’s recommendations. The cells were then treated with CuSO4 at a concentration range from 100 µM to 800 µM for 24 h, fixed with 4% paraformaldehyde for 15 min and finally stained with 250 ng/mL DAPI (Thermo Fisher scientific, Molecular Probes, D1306) for 5 min. The coverslips were fixed on a glass slide using Mowiol 4–88 (Sigma Aldrich, 81381). The fluorescence cell imaging was acquired using a confocal Zeiss LSM 780 microscope with a 63 × 1.40 Oil DIC M27. […] Red and yellow puncta count per cell was done using the particle analysis in image J. For protein ATP7B trafficking analysis, 50,000 cells of HepG2 WT and HepG2 ATP7B^−/− were cultured in a 500 µL cell culture medium on a laminin-coated coverslip for 24 h, then transfected with EGFP-ATP7B. After 6 h post transfection, cells were transduced with BacMam-RFP-Golgi or the BacMam-RFP-Lysosome overnight, then treated with various concentrations of CuSO4 or 200 µM of bathocuproine disulfonate (BCS) for 24 h or EBSS for 2 h, respectively. To detect LC3B or endogenous ATP7B, the fixed cells were incubated with anti-LC3B or anti-ATP7B antibodies at 4 °C overnight followed by secondary antibody incubation, Alexa Fluor 568 goat anti-rabbit, at temperature for 1 h in the dark. Pearson’s correlation coefficient was analyzed per cell using the colocalization threshold of ImageJ Fiji.

LC3B [1] = target: T1, LC3B (Homo sapiens, UniProt Q9GZQ8); assay: Fluorescence polarization binding of CF-labelled LIR peptides to purified LC3B; conditions: CF-labelled peptide 2.5 µM (25 µL) + LC3B 0.2–330 µM (25 µL), HEPES buffer 50 mM pH 7.2, 50 mM NaCl, 2 mM DTE, one site-specific binding fit, three independent replications, read-out: Kd (dissociation constant) for LC3B
T1 construct: His6 (N, cleaved yes); MBP (N, cleaved yes); made in house; host or cells: E. coli BL21-codonplus (DE3)-RIL
Procedure: Binding experiments were done in a black 384-microwell plate. […] Each CF-labelled peptide in a volume of 25 µL at a concentration of 2.5 µM was combined with 25 µL of LC3B at a concentration range from 0.2–330 µM. The fluorescent polarization was measured with the excitation and emission wavelengths of […], respectively. The obtained polarization data were corrected by subtraction of the peptide alone (blank). The dissociation constant (Kd) was quantified using a nonlinear curve fitting the site-specific binding on GraphPad Prism 5.0 for Windows (GraphPad Software, La Jolla, CA, USA). Experiments were performed in three independent replications.

LC3B [2] = target: T1, LC3B; assay: Pull-down with resin-bound GST-LC3B as bait from transfected HEK293H cell lysate; format: binding; conditions: 500 µg HEK293H lysate, western blot, repeated two times
Procedure: GST tagged LC3B was used as a bait to trap the full-length ATP7B from a lysate obtained from ATP7B transfected human embryonic kidney 293 H cell line (HEK293H) cells. To this end, 100,000 cells of HEK293H were cultured in 1 mL of DMEM media (Thermo Fisher Scientific, 31966-047) plus 10% fetal bovine serum (FBS) (Fisher Scientific, 10309433) and 1% Penicillin-Streptomycin (P/S) (Thermo Fisher Scientific, 15140122). Once the cells reached 80% confluence, cells were transfected with pIRES-GFP carrying full-length ATP7B (NM_000053.4) or its W1452A/L1455A mutant using Lipofectamine LTX and plus reagent (Invitrogen, 15338100). […] Blots were imaged on an Infrared fluorescence imaging system using Li-Cor 9120 Odyssey (LI-COR Biosciences, Bad Homburg, Germany). Protein band intensity quantification was done using ImageJ (National Institutes of Health, Bethesda, MD, USA).

Molecule: Cc1cc(-c2ccc(S(=O)(=O)O)cc2)c2ccc3c(-c4ccc(S(=O)(=O)O)cc4)cc(C)nc3c2n1 [BCS, bathocuproine disulfonate]
fold elevation of ATP7B fraction in the TGN vs basal medium condition (HepG2 WT cells): about 12.6 fold | ATP7B fraction in the TGN (HepG2 WT cells; from mean Pearson's correlation coefficient, 30 cells): 32.8%

Molecule: CSCC[C@H](NC(=O)c1ccc2c(c1)C(=O)OC21c2ccc(O)cc2Oc2cc(O)ccc21)C(=O)N[C@@H](CCCCN)C(=O)N[C@@H](CCCCN)C(=O)N[C@@H](CO)C(=O)N[C@@H](Cc1ccccc1)C(=O)N[C@@H](C)C(=O)N[C@@H](Cc1ccccc1)C(=O)N[C@@H](CC(=O)O)C(=O)N[C@@H](CC(N)=O)C(=O)N[C@H](C(=O)NCC(=O)N[C@@H](Cc1ccc(O)cc1)C(=O)N[C@@H](CCC(=O)O)C(=O)NCC(=O)NCC(=O)N[C@@H](CC(C)C)C(=O)N[C@@H](CC(=O)O)C(N)=O)C(C)C [LIR1] (5FAM-MKKSFAFDNVGYEGGLD-NH2)
Kd (LC3B [1]): > 250 µM

Results, then the molecule that gave them:

Kd (LC3B [1]): > 250 µM
Molecule: CC(C)[C@H](NC(=O)[C@H](Cc1ccc(O)cc1)NC(=O)[C@H](CO)NC(=O)[C@@H](NC(=O)[C@H](CCC(N)=O)NC(=O)[C@H](CC(=O)O)NC(=O)[C@H](Cc1c[nH]c2ccccc12)NC(=O)[C@@H]1CCCN1C(=O)[C@@H](NC(=O)[C@H](C)NC(=O)[C@H](CCCNC(=N)N)NC(=O)[C@@H]1CCCN1C(=O)[C@H](CO)NC(=O)[C@H](CC(=O)O)NC(=O)c1ccc2c(c1)C(=O)OC21c2ccc(O)cc2Oc2cc(O)ccc21)[C@@H](C)O)C(C)C)C(=O)N[C@@H](CO)C(=O)N[C@@H](CCC(N)=O)C(N)=O [LIR2] (5FAM-DSPRATPWDQVSYVSQ-NH2)

Kd (LC3B [1]): > 250 µM
Molecule: CC(C)C[C@H](NC(=O)[C@H](C)NC(=O)[C@H](CC(C)C)NC(=O)[C@H](CO)NC(=O)[C@H](C)NC(=O)[C@H](CCCCN)NC(=O)[C@H](CC(=O)O)NC(=O)CNC(=O)[C@H](CC(=O)O)NC(=O)[C@H](CC(=O)O)NC(=O)[C@H](CC(=O)O)NC(=O)[C@H](C)NC(=O)c1ccc2c(c1)C(=O)OC21c2ccc(O)cc2Oc2cc(O)ccc21)C(=O)N[C@@H](CC(N)=O)C(=O)NCC(=O)N[C@@H](CCCNC(=N)N)C(=O)N[C@@H](CC(=O)O)C(N)=O [LIR3^W1452A,L1455A] (5FAM-ADDDGDKASLALNGRD-NH2)

Kd (LC3B [1]): > 250 µM
Molecule: CC(C)C[C@H](NC(=O)[C@H](CO)NC(=O)[C@H](C)NC(=O)[C@H](CCCCN)NC(=O)[C@H](CC(=O)O)NC(=O)CNC(=O)[C@H](CC(=O)O)NC(=O)[C@H](CC(=O)O)NC(=O)[C@H](CC(=O)O)NC(=O)[C@H](C)NC(=O)c1ccc2c(c1)C(=O)OC21c2ccc(O)cc2Oc2cc(O)ccc21)C(=O)N[C@@H](CC(C)C)C(=O)N[C@@H](CC(C)C)C(=O)N[C@@H](CC(N)=O)C(=O)NCC(=O)N[C@@H](CCCNC(=N)N)C(=O)N[C@@H](CC(=O)O)C(N)=O [LIR3^W1452A] (5FAM-ADDDGDKASLLLNGRD-NH2)

ATP7B in elution fraction of GST-LC3B pull-down (LC3B [2]): detected in the elution fraction
B1: wild-type ATP7B: full-length recombinant copper-transporting ATPase ATP7B from transfected HEK293H cell lysate (protein)
chain: MPEQERQITAREGASRKILSKLSLPTRAWEPAMKKSFAFDNVGYEGGLDGLGPSSQVATSTVRILGMTCQSCVKSIEDRISNLKGIISMKVSLEQGSATVKYVPSVVCLQQVCHQIGDMGFEASIAEGKAASWPSRSLPAQEAVVKLRVEGMTCQSCVSSIEGKVRKLQGVVRVKVSLSNQEAVITYQPYLIQPEDLRDHVNDMGFEAAIKSKVAPLSLGPIDIERLQSTNPKRPLSSANQNFNNSETLGHQGSHVVTLQLRIDGMHCKSCVLNIEENIGQLLGVQSIQVSLENKTAQVKYDPSCTSPVALQRAIEALPPGNFKVSLPDGAEGSGTDHRSSSSHSPGSPPRNQVQGTCSTTLIAIAGMTCASCVHSIEGMISQLEGVQQISVSLAEGTATVLYNPSVISPEELRAAIEDMGFEASVVSESCSTNPLGNHSAGNSMVQTTDGTPTSVQEVAPHTGRLPANHAPDILAKSPQSTRAVAPQKCFLQIKGMTCASCVSNIERNLQKEAGVLSVLVALMAGKAEIKYDPEVIQPLEIAQFIQDLGFEAAVMEDYAGSDGNIELTITGMTCASCVHNIESKLTRTNGITYASVALATSKALVKFDPEIIGPRDIIKIIEEIGFHASLAQRNPNAHHLDHKMEIKQWKKSFLCSLVFGIPVMALMIYMLIPSNEPHQSMVLDHNIIPGLSILNLIFFILCTFVQLLGGWYFYVQAYKSLRHRSANMDVLIVLATSIAYVYSLVILVVAVAEKAERSPVTFFDTPPMLFVFIALGRWLEHLAKSKTSEALAKLMSLQATEATVVTLGEDNLIIREEQVPMELVQRGDIVKVVPGGKFPVDGKVLEGNTMADESLITGEAMPVTKKPGSTVIAGSINAHGSVLIKATHVGNDTTLAQIVKLVEEAQMSKAPIQQLADRFSGYFVPFIIIMSTLTLVVWIVIGFIDFGVVQRYFPNPNKHISQTEVIIRFAFQTSITVLCIACPCSLGLATPTAVMVGTGVAAQNGILIKGGKPLEMAHKIKTVMFDKTGTITHGVPRVMRVLLLGDVATLPLRKVLAVVGTAEASSEHPLGVAVTKYCKEELGTETLGYCTDFQAVPGCGIGCKVSNVEGILAHSERPLSAPASHLNEAGSLPAEKDAVPQTFSVLIGNREWLRRNGLTISSDVSDAMTDHEMKGQTAILVAIDGVLCGMIAIADAVKQEAALAVHTLQSMGVDVVLITGDNRKTARAIATQVGINKVFAEVLPSHKVAKVQELQNKGKKVAMVGDGVNDSPALAQADMGVAIGTGTDVAIEAADVVLIRNDLLDVVASIHLSKRTVRRIRINLVLALIYNLVGIPIAAGVFMPIGIVLQPWMGSAAMAASSVSVVLSSLQLKCYKKPDLERYEAQAHGHMKPLTASQVSVHIGMDDRWRDSPRATPWDQVSYVSQVSLSSLTSDKPSRHSAAADDDGDKWSLLLNGRDEEQYI
